Measured values taken from US4740501A (priority 1985, dated 1988).
pIC50: −log10 of the molar value. Read-outs that look alike come from different tables or passages of the source.

Columns and labels:
[1] = test system: L-1210 leukemia; assay: In vivo therapy of mice inoculated intraperitoneally with L-1210 leukemia; design: species or system DBA/2 mice
[2] = test system: Raji B-lymphoma; assay: Tumor cell survival (trypan blue), continuous exposure; format: cell-based, Human
[3] = test system: MMTV proteins; assay: Intracellular MMTV polypeptides (immune precipitation, NaDodSO4-PAGE); format: cell-based, mouse; conditions: for activity at 15 µM: Mus musculus, control 100, read-out: Relative level of MMTV-associated radioactivity (%): Total MMTV Protein
Protocol: Intracellular MMTV proteins were identified in monolayer cells after 24 or 48 hour exposure to 15 uM PTT.119. Cultures were labeled with 25 uCi/ml of (^3 H)-leucine for the first 24 hours and were then doubly labeled with (^35 S)-methionine when the spent media were replenished. The relative rates of MMTV polypeptide synthesis were determined using parallel cultures continuously-treated with PTT.119 and pulse labeled for 15 minutes with ^35 S-methionine. Following labeling, the cells were washed twice in cold 0.01M phosphate-buffered saline, pH 7.5, and a solution of protease inhibitors added to yield a final concentration of 1 uM pepstatin, 10 ug soybean trypsin inhibitor/ml, and 1 mM N-ethyl maleimide. Cells were then disrupted in 0.05M phosphate buffer containing 0.1M NaCl and 0.1% Triton X-100, pH 7.5 (Pi/NaCl/Triton). Cells were scraped from the substrate and lysis completed by passing the suspensions through a 27 gauge needle five times. Nuclei were removed by centrifugation at 600×g for 10 minutes at 4° C. and 100 ul aliquots of the supernatants mixed with 10 ul preimmune rabbit sera and 50 ul of 10% […] formalin-fixed and heat-killed.
Following a 15 minute incubation at 26° C., the Staphlococcus aureus (Cowan strain) immunoabsorbent was removed by centrifugation at 10,000×g for 1 minute in a Beckman microfuge. Supernatants (100 ul) were sequentially incubated at 26° C. with 33 ul of rabbit anti-MMTV antisera for 25 minutes and 150 ul of 10% S. aureus for 15 minutes. S. aureus was then pelleted and the precipitate washed five times in Pi/NaCl/Triton. Samples were finally resuspended in 20 ul of 1% NaDodSO4 /2-mercaptoethanol, heated for 1 minute at 100° C. to release MMTV proteins, and centrifuged to remove S. aureus. Supernatants were then subjected to NaDodSO4 -PAGE. Samples were disrupted in 1% NaDodSO4 and 1% B-mercaptoethanol at 100° C. for 1 minute electrophoresed on 10-20% polyacrylamide gradient slab gels using a discontinuous buffer system. Electrophoresis of immune precipitates from cell lysates was carried out in a similar manner using 7.5-15% polyacrylamide gradients. Mr of MMTV-related polypeptides were determined by coelectrophoresis of [^14 C]-protein standards (Mr 30,000 to 50,000 Da; New England Nuclear). Radioactivity was determined and the levels associated with MMTV polypeptide peaks quantitated using a generalized curve-fit computer program.

[4] = test system: L1210 leukemia; assay: cells; format: cell-based, mice
[5] = test system: L1210/L-PAM leukemia cells; design: species or system BDF1 mice; conditions: mouse, in vivo
[6] = test system: L1210S; assay: cells; format: cell-based
[7] = test system: L1210 leukemia cells; assay: Tumorigenicity of in vitro treated leukemia cells in BDF1 recipients; format: in vivo, BDF1 mice; conditions: for MST: L1210, control 10
Protocol: All in vitro PTT.119 and L-PAM treatment of cells were carried out at 37° C. in the appropriate complete growth media containing 10% or 18% sera. L1210, L1210/L-PAM and P388/L-PAM cell suspensions of 1×10^6 cells/ml were subjected to a single 15, 30 or 60 min pulse exposure to 3.75, 7.5 and 15 uM PTT.119 or L-PAM. Following treatment, media were removed by pelleting the cells at 200×g for 9 min at 5° C. Cells were then gently washed twice with fresh growth media and finally resuspended in RPMI-1630 medium with 10% FBS for in vitro cultures.
Suspensions of PTT.119 or L-PAM treated cells, and control leukemia cells were adjusted to 1×10^7 cells/ml based on tumor cell concentrations prior to drug exposure. Syngeneic female BDF1 (BALB/c×DBA/2)f, mice weighing 20 to 26 g received intraperitoneal injections of 1×10^6 cells. Mice were monitored daily throughout the 45 day examination period and were autopsied at the time of death.

[8] = test system: L-1210 leukemia cells; assay: Bioassay of tumorigenicity of in vitro treated tumor cells in syngeneic hosts; format: in vivo, BDf1 mice; conditions: for MEAN SURVIVAL TIME (MST) of recipients: L-1210, control 10
Excerpt: Suspensions of untreated and tripeptide treated MJY-alpha mammary tumor, B-16 melanoma, and L-1210 leukemia cells were adjusted to a concentration of 1×10^7 cells/ml based on the initial tumor cell concentration before the tripeptide exposure. Tumor cells were inoculated into syngeneic hosts at a concentration of 1×10^6 cells in […]. Female BALB/c/Crgl recipients of MJY-alpha mammary tumor cells and male C57BL/6/Jx hosts receiving B16 melanoma cells were inoculated subcutaneously; BDf1 mice were given intraperitoneal injections of L-1210 cells. Subcutaneous tumors were measured along their long and short axes every 1 to 3 days; tumor size is reported as the product of the two measurements (mm^2). The examination periods for mice receiving L-1210, MJY-alpha and B-16 tumor grafts were 45, 80, and 85 days, respectively. All mice were autopsied at the time of death or sacrifice.

[9] = single dose 10, 15, and 20 mg/kg 48 hours after inoculation

CCOC(=O)[C@H](CCSC)NC(=O)[C@H](Cc1cccc(N(CCCl)CCCl)c1)NC(=O)[C@@H](N)Cc1ccc(F)cc1.Cl [PTT.119, 3-(p-fluorophenyl)-L-alanyl-3-[m-bis(2-chloroethyl)aminophenyl]-L-alanyl-L-methionine ethyl ester hydrochloride]
mean survival time ([1]; single dose 10, 15, and 20 mg/kg 48 hours after 10^6 L-1210 cells i.p., from 8 days): 30 days | apparent cure, share of treated animals [1, 9]: 30% | increase of the mean survival time [1, 9]: 275% | % tumor cell survival ([2]; 10 ug/ml, 1 hr): 98% | % tumor cell survival ([2]; 10 ug/ml, 4 hr): 98% | % tumor cell survival ([2]; 10 ug/ml, 24 hr): 82% | % tumor cell survival ([2]; 25 ug/ml, 1 hr): 100% | % tumor cell survival ([2]; 25 ug/ml, 4 hr): 97% | % tumor cell survival ([2]; 25 ug/ml, 8 hr): 97% | % tumor cell survival ([2]; 25 ug/ml, 24 hr): 35% | % tumor cell survival ([2]; 50 ug/ml, 1 hr): 94% | % tumor cell survival ([2]; 50 ug/ml, 4 hr): 90% | % tumor cell survival ([2]; 50 ug/ml, 8 hr): 76% | % tumor cell survival ([2]; 50 ug/ml, 24 hr): 20% | levels of radiolabeled MMTV polypeptides higher than in parallel controls ([3]; 15 min pulse labelling at end of 24 and 48 hour treatment): 1.5 fold | activity at 15 µM ([3]; 24 hr, 15 min pulse labelling): 181% | activity at 15 µM ([3]; 48 hr, 15 min pulse labelling): 154% | activity at 15 µM ([3]; 48 hr, 24 hr labeling): 125% | activity at 15 µM ([3]; 24 h, 24 hr, 24 hr labeling): 128% | T.C.D.100 [4]: 37.5 | elimination of viable population [4]: completely eliminated the viable population | surviving fraction at end of examination period [4]: 15% | percentage of viable cells ([4]; 3.75 µM): 40-50% | pIC50 ([4]; Mus musculus, L1210, 24 h, read-out: T.C.D.50): 5.05 | tumorigenicity of L1210/L-PAM cells [5]: Complete abrogation | pIC50 ([6]; 24 h, read-out: T.C.D.50): 5.62 | T.C.D.100 ([6]; L1210S, 24 hours exposure): 7.5 µM | MST ([7]; 7.5 uM, 30 min): 21 days | MST ([7]; 7.5 uM, 60 min): 32 days | MST ([7]; 15 uM, 15 min): 8 days | mice free of tumor at end of 45-day examination period ([7]; L1210 cells, 7.5 and 15 uM, every group): 80-100% | MEAN SURVIVAL TIME (MST) of recipients ([8]; 1 ug/ml, 15 min): 10 days | MEAN SURVIVAL TIME (MST) of recipients ([8]; 1 ug/ml, 30 min): 10 days | MEAN SURVIVAL TIME (MST) of recipients ([8]; 1 ug/ml, 60 min): 11 days | MEAN SURVIVAL TIME (MST) of recipients ([8]; 1 ug/ml, 120 min): 13 days | MEAN SURVIVAL TIME (MST) of recipients ([8]; 5 ug/ml, 15 min): 13 days | MEAN SURVIVAL TIME (MST) of recipients ([8]; 5 ug/ml, 30 min): 21 days | MEAN SURVIVAL TIME (MST) of recipients ([8]; 5 ug/ml, 60 min): 32 days | MEAN SURVIVAL TIME (MST) of recipients ([8]; 10 ug/ml, 15 min): 8 days | ILS (increased life span) ([8]; L-1210 cells treated with 5 ug for 30 min): 110% | ILS (increased life span) ([8]; L-1210 cells treated with 5 ug for 60 min): 220% | tumor growth in recipient mice ([8]; L-1210 cells treated with 5 ug for 2 hr): No tumor growth | tumor growth in recipient mice ([8]; L-1210 cells treated with 10 ug for 30 min or longer): No tumor growth
